Measurements: patent publication US11053258B2, “Pyrimidine carboxamides as GSK-3 inhibitors” (BRISTOL-MYERS SQUIBB COMPANY, priority 2016, dated 2021)
pIC50: −log10 of the molar value.

Assays:
[1] = tested on: pTau; assay: pTau assay; assay type: cell-based
[2] = target: GSK3α (Homo sapiens, UniProt P49840); assay: GSK3α kinase assay (Caliper LabChip3000, fluoresceinated peptide substrate); assay type: biochemical; settings: second value of cell; 250 pM enzyme, 20 uM ATP, 20 hours room temperature; read-out: GSK3β/α (nM): GSK3α IC50
Chain of GSK3α (P49840 whole entry, species assumed): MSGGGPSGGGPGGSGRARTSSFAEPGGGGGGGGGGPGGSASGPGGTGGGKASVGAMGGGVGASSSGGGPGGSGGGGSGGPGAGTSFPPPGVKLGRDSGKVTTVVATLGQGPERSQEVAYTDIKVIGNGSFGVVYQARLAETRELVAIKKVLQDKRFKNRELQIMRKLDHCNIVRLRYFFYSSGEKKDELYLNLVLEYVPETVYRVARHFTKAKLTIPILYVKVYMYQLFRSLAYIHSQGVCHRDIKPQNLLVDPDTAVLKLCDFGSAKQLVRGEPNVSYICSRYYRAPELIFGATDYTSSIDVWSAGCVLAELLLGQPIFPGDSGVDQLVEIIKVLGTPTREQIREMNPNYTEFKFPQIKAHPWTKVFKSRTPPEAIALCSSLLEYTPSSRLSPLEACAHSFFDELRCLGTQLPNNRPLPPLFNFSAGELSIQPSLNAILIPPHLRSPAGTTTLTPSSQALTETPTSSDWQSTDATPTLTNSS
Description: (§1) The kinase assay was performed in V-bottom 384-well plates. The final assay volume was 30 μl prepared from 15 μl additions of enzyme, substrates (fluoresceinated peptide FL-KRREILSRRP[ps]ERYR-NH2 and ATP) and test compounds in assay buffer (100 mM HEPES pH 7.4, 10 mM MgCl2, 25 mM Beta-Glycerolphosphate, 0.015% Brij35 and 0.25 mM DTT). The reaction was incubated at room temperature for 20 hours and terminated by adding 45 μl of 35 mM EDTA to each sample. The reaction mixture was analyzed on the Caliper LabChip3000 (Caliper, Hopkinton, Mass.) by electrophoretic separation of the unphosphorylated substrate and phosphorylated product. Inhibition data were calculated by comparison of the no enzyme control reactions for 100% inhibition and vehicle-only reactions for 0% inhibition. The final concentration of reagents in the assay were 250 pM GSK3α or GSK3β, 20 uM ATP, 1.5 uM FL-KRREILSRRP[ps]ERYR-NH2, and 1.6% DMSO. Dose response curves were generated to determine the concentration required to inhibit 50% of the kinase activity (IC50). Compounds were dissolved at 10 mM in dimethylsulfoxide (DMSO) and evaluated at eleven concentrations. IC50 values were derived by non-linear regression analysis.

[3] = target: GSK3β (Homo sapiens, UniProt P49841); assay: GSK3β kinase assay (Caliper LabChip3000, fluoresceinated peptide substrate); assay type: biochemical; settings: first value of cell; 250 pM enzyme, 20 uM ATP, 20 hours room temperature; read-out: GSK3β/α (nM): GSK3β IC50
Chain of GSK3β (P49841 whole entry, species assumed): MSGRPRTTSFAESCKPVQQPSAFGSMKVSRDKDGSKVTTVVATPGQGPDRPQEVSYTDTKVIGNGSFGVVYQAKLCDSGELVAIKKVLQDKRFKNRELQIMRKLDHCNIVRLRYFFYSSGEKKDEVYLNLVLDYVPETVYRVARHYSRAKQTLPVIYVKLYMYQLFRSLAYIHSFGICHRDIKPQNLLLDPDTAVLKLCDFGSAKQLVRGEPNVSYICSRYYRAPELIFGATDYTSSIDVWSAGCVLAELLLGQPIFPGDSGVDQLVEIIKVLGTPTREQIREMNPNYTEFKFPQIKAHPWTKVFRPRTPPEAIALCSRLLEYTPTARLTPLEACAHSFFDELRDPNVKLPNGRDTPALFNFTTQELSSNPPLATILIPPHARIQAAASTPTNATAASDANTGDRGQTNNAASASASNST
Description: as §1

Row | SMILES | pIC50 [1] | IC50 [2] [nM] | IC50 [3] [nM]
1 | O=C1Nc2cnc(F)cc2N2CCN(C/C=C/CC(F)CNc3nccc1n3)CC2 (stereo not shown) [Example 30, (E)-2^6,8-Difluoro-3,6-diaza-5(4,2)-pyrimidina-1(1,4)-piperazina-2(4,3)-pyridinacyclododecaphan-10-en-4-one] | 6.75 | 15.5 | 
2 | CC1(C)C/C=C/CN2CCN(CC2)c2cc(F)ncc2NC(=O)c2ccnc(n2)NC1 [Example 32, (E)-2^6-Fluoro-8,8-dimethyl-3,6-diaza-5(4,2)-pyrimidina-1(1,4)-piperazina-2(4,3)-pyridinacyclododecaphan-10-en-4-one] | 7.10 | 2 | 
3 | O=C1Nc2cnc(F)cc2N2CCN(C/C=C\CC3(CC3)CNc3nccc1n3)CC2 [Example 44, (Z)-6′-fluorospiro[cyclopropane-1,8′-3,6-diaza-5(4,2)-pyrimidina-1(1,4)-piperazina-2(4,3)-pyridinacyclododecaphanen]-10′-en-4′-one] | 5.79 | 21.1 | 12.5
4 | O=C1Nc2cnc(F)cc2N2CCOC(CCCCCNc3nccc1n3)C2 (stereo not shown) [Example 15, 2^6-Fluoro-3,6-diaza-1(4,2)-morphohna-5(4,2)-pyrimidina-2(4,3)-pyridinacycloundecaphan-4-one] | 5.72 | 34 | 22.3
5 | CC1(O)C/C=C/CN2CCN(CC2)c2cc(F)ncc2NC(=O)c2ccnc(n2)NC1 (stereo not shown) [Example 39, (E)-2^6-Fluoro-8-hydroxy-8-methyl-3,6-diaza-5(4,2)-pyrimidina-1(1,4)-piperazina-2(4,3)-pyridinacyclododecaphan-10-en-4-one] | 6.43 | 8 | 4.1
6 | C[C@@H]1Nc2nccc(n2)C(=O)Nc2cnc(F)cc2N2CCN(C/C=C/CC1O)CC2 (single isomer, unassigned) [Example 36] | 6.69 | 18.5 | 10.8
7 | O=C1Nc2cnc(F)cc2N2CCN(C/C=C/CCCNc3nccc1n3)CC2 (single isomer, unassigned) [Example 23, (E)-2^6-fluoro-3,6-diaza-5(4,2)-pyrimidina-1(1,4)-piperazina-2(4,3)-pyridinacyclododecaphan-10-en-4-one] | 7.74 | 0.6 | 0.5
8 | C[C@@H]1Nc2nccc(n2)C(=O)Nc2cnc(F)cc2N2CCN(C/C=C/C[C@@H]1O)CC2 [Example 37, (7S,8S,E)-2^6-fluoro-8-hydroxy-7-methyl-3,6-diaza-5(4,2)-pyrimidina-1(1,4)-piperazina-2(4,3)-pyridinacyclododecaphan-10-en-4-one] | 6.39 | 17 | 7.3

Continued, values first:

Row | pIC50 [1] | IC50 [2] [nM] | IC50 [3] [nM] | SMILES
9 | 6.04 | 21.2 | 28.6 | O=C1Nc2cnccc2OCCCCCNc2nccc1n2 [Example 6, 5-Oxa-3,11-diaza-1(4,2)-pyrimidina-4(3,4)-pyridinacycloundecaphan-2-one]
10 | 7.02 | 3.2 | 1.4 | CC1(O)CCCCCOc2ccncc2NC(=O)c2ccnc(n2)NC1 (stereo not shown) [Example 42, 11-Hydroxy-11-methyl-5-oxa-3,13-diaza-1(4,2)-pyrimidina-4(3,4)-pyridinacyclotridecaphan-2-one]
11 | 6.58 | 6.7 | 3.1 | O=C1Nc2cnccc2OCCCCCCCNc2nccc1n2 [Example 18, 5-Oxa-3,13-diaza-1(4,2)-pyrimidina-4(3,4)-pyridinacyclotridecaphan-2-one]
12 | 7.04 | 3.3 | 1.3 | O=C1Nc2cnccc2OCC/C=C/CCCNc2nccc1n2 [Example 17, (E)-5-Oxa-3,13-diaza-1(4,2)-pyrimidina-4(3,4)-pyridinacyclotridecaphan-8-en-2-one]
13 | 6.84 | 6.2 | 5.2 | O=C1Nc2cnccc2OCCCCCCNc2nccc1n2 [Example 9, 5-Oxa-3,12-diaza-1(4,2)-pyrimidina-4(3,4)-pyridinacyclododecaphan-2-one]
